Changes are numbered by the printed parent chain.
Legend:
Format in all cases: cell-based
TMEM16A [1] = target: T1, TMEM16A (Mus musculus, UniProt Q8BHY3, R535A); experiment: whole-cell patch clamp of mutant channel in HEK293T cells, […] TF; conditions: HEK-293T
T1 construct: gene Ano1; mouse TMEM16A (NM_178642.5)
T1 sequence (Q8BHY3 1-960 R535A): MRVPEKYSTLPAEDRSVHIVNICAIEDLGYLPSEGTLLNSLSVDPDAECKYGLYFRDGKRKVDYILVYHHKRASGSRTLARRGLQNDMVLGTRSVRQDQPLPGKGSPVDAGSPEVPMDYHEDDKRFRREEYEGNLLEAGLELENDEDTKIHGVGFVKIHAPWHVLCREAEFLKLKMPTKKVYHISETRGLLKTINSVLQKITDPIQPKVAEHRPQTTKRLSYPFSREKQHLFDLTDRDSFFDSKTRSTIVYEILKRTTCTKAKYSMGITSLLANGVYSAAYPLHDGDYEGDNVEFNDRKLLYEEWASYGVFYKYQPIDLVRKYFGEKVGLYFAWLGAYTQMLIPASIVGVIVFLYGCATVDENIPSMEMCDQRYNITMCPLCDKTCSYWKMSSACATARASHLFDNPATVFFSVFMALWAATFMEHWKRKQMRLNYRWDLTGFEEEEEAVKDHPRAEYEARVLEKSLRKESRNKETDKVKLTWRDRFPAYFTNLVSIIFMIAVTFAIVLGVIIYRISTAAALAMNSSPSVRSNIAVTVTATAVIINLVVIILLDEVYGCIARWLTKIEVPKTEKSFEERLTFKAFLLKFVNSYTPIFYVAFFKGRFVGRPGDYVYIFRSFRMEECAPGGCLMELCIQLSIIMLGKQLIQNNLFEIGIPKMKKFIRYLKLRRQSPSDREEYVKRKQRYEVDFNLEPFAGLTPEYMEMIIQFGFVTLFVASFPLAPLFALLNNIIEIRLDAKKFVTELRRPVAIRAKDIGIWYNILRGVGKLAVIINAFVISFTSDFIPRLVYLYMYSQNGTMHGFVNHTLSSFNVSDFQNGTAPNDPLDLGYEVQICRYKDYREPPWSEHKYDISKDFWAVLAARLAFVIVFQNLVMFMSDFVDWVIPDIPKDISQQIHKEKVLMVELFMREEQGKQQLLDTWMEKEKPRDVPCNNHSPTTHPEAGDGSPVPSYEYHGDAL

TMEM16A [2] = target: T2, TMEM16A (Mus musculus, UniProt Q8BHY3); experiment: whole-cell patch clamp, recombinant channel in HEK293T cells; supported by mutagenesis
T2 construct: gene Ano1; mouse TMEM16A (NM_178642.5)
T2 sequence (Q8BHY3 1-960): T1 sequence (Q8BHY3 1-960 R535A) with A535R

TMEM16A [3] = target: T3, TMEM16A (Mus musculus, UniProt Q8BHY3, T539A); experiment: whole-cell patch clamp of mutant channel in HEK293T cells, […] TF; conditions: HEK-293T
T3 construct: gene Ano1; mouse TMEM16A (NM_178642.5)
T3 sequence (Q8BHY3 1-960 T539A): T1 sequence (Q8BHY3 1-960 R535A) with A535R, T539A

TMEM16A [4] = target: T4, TMEM16A (Mus musculus, UniProt Q8BHY3, K603A); experiment: as above; conditions: HEK-293T
T4 construct: gene Ano1; mouse TMEM16A (NM_178642.5)
T4 sequence (Q8BHY3 1-960 K603A): T1 sequence (Q8BHY3 1-960 R535A) with A535R, K603A

## O=c1c(O)cc([C@H]2Oc3cc(O)cc(O)c3C[C@H]2O)cc2c([C@H]3Oc4cc(O)cc(O)c4C[C@H]3O)cc(O)c(O)c12 [TF, theaflavin]
TMEM16A [1]
  inhibition at 10 µM: 71%
TMEM16A [2]
  IC50: 0.75 ± 0.13 µM
TMEM16A [3]
  inhibition at 10 µM: 51%
TMEM16A [4]
  inhibition at 10 µM: 54%

Source: publication PMC8368026, “Theaflavin binds to a druggable pocket of TMEM16A channel and inhibits lung adenocarcinoma cell viability” (The Journal of Biological Chemistry, 2021)
